Assay results taken from patent US9102688B2, “Sulfonaminoquinoline hepcidin antagonists” (Vifor (International) AG, priority 2011, dated 2015).

Biological target: T1, human ferroportin (Homo sapiens, UniProt Q9NP59)
T1 construct: expressed in transfected cells
T1 sequence (Q9NP59 1-571): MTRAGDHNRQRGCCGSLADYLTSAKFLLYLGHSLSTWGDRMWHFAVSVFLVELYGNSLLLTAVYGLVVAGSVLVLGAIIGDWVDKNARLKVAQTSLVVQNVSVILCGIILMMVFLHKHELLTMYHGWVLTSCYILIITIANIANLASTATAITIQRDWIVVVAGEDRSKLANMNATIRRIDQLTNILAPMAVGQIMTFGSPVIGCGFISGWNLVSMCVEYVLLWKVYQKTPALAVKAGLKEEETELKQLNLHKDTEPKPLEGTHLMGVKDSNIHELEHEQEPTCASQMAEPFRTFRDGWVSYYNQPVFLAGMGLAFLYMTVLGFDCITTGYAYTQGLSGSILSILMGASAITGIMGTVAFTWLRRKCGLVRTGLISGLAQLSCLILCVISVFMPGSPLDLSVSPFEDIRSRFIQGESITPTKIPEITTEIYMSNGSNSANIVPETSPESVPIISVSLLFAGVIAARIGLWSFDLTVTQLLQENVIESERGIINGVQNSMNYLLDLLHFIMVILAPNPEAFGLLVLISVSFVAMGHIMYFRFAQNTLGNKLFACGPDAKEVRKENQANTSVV
Test: ferroportin internalization assay (inhibition of hepcidin-induced internalization of Fpn)
Format: cell-based
Conditions: MDCK-FPN-HaloTag cells, 100 nM hepcidin, overnight incubation; concentration range from 0.04 to 40 μM
Procedure: The hepcidin-antagonistic action of the sulfonaminoquinoline compounds of the present invention was determined by means of the “ferroportin internalization assay” described in the following.
Organic compounds of low molecular weight which counteract the biological actions of hepcidin on its receptor, the iron exporter ferroportin (Fpn), were identified on the basis of their ability to inhibit hepcidin-induced internalization of Fpn in living cells. For this purpose, a stable cell line (Madin-Darby canine kidney, MDCK) was produced which constitutively expresses human ferroportin fused recombinantly at its C terminus with a fluorescent reporter protein (HaloTag®, Promega Corp.). The internalization of Fpn was monitored by labelling these cells with fluorescent ligands (HaloTag®-TMR, tetramethylrhodamine) which join covalently on to the HaloTag reporter gene fused with the Fpn. […] Optimized image analysis algorithms were used to ascertain the cell surface and to quantify the corresponding membrane fluorescence associated with the Fpn-HaloTag fusion protein. This assay allows a quantitative image-based analysis in order to quickly evaluate compounds which can block hepcidin-induced internalization of Fpn. This assay is a direct in vitro pendant of the in vivo action mechanism proposed for medicament candidates and is therefore suitable as an initial assay with a high throughput for identifying compounds which counteract the action of hepcidin on its receptor ferroportin.
• 7,500 cells per well (MDCK-FPN-HaloTag) were transinoculated in 50 μl of DMEM medium (Dulbeccos Modified Eagle Medium with 10% foetal bovine serum (FBS), which contained 1% penicillin, 1% streptomycin and 450 μg/ml of G-418) in microtitre plates with 384 wells (384 Cell carrier plates, Perkin Elmer, cat. no. 6007430), followed by incubation overnight at 37° C./5% CO2. • The volume of the medium was reduced to 10 μl, and 10 μl of 5 μM HaloTag-TMR ligands (Promega, cat. no. G 8251) were added in DMEM medium in order to stain the Fpn-HaloTag fusion protein. • 15 min incubation at 37° C./5% CO2 • The HaloTag-TMR ligand was removed and the cells were washed with fresh DMEM medium and the volume was reduced to 20 μl of DMEM medium. • 3 μl per well of a solution of the test compound (dissolved DMSO) were added ([…]). • 7 μl of […] hepcidin (Peptides International, cat. no. PLP-4392-s, 100 μM stock solution diluted in water in DMEM medium) were added per well up to a final hepcidin concentration of 100 nM. • The cells were incubated overnight at 37° C./5% CO2. • The cells were fixed by adding paraformaldehyde (PFA, Electron Microscopy Sciences, cat. no. 15710-S) directly to the cells up to a final concentration of 4%, followed by incubation at room temperature for 15-20 minutes. • The PFA solution was removed and the cells were washed with PBS (phosphate-buffered saline solution), in each case 30 μl remaining in the plate. • 20 μl of Draq5 (Biostatus, cat. no. DR 51000) were added up to a final concentration of 2.5 μM in order to stain the cell nuclei, and the plates were sealed with a foil plate seal. • The plates were analysed with the Opera Plate Imager (Opera Confocal Plate Imager, Perkin Elmer) with 7 images per well; 440 ms exposure time per image, […] focal point height.

IC50	SMILES
1620 nM	O=S1(=O)Nc2c(ccc3cccnc23)-c2ccc(F)cc21 [Example 330, 8-Fluoro-5H-6-thia-4,5-diaza-chrysene 6,6-dioxide]
873 nM	O=S(=O)(Nc1cccc2cccnc12)c1ccc(Cl)cc1F [Example 42, 4-Chloro-2-fluoro-N-quinolin-8-yl-benzenesulfonamide]
1090 nM	O=S(=O)(Nc1cc(OC(F)(F)F)cc2cccnc12)c1ccccn1 [Example 235, Pyridine-2-sulfonic acid (6-trifluoromethoxy-quinolin-8-yl)-amide]
620 nM	O=S1(=O)Nc2c(cc(Cl)c3cccnc23)-c2cc(NCCN3CCOCC3)ccc21 [Example 511, (12-Chloro-6,6-dioxo-5,6-dihydro-6λ*6*-thia-4,5-diaza-chrysen-9-yl)-(2-morpholin-4-yl-ethyl)-amine]
1170 nM	O=S1(=O)Nc2c(ccc3cccnc23)-c2cc(OC(F)(F)F)ccc21 [Example 333, 9-Trifluoromethoxy-5H-6-thia-4,5-diaza-chrysene 6,6-dioxide]
2110 nM	COc1ccc2c(c1)S(=O)(=O)Nc1c-2ccc2cccnc12 [Example 326, 8-Methoxy-5H-6-thia-4,5-diaza-chrysene 6,6-dioxide]
3200 nM	O=S(=O)(Nc1cccc2cccnc12)c1ccc(Cl)cc1 [Example 5, 4-Chloro-N-quinolin-8-yl-benzenesulfonamide]
15000 nM	O=C(c1ccc2c(c1)-c1cc(Cl)c3cccnc3c1NS2(=O)=O)N1CCC(O)C1 (stereo not shown) [Example 531, (12-Chloro-6,6-dioxo-5,6-dihydro-6λ*6*-thia-4,5-diaza-chrysen-9-yl)-(3-hydroxy-pyrrolidin-1-yl)-methanone]
1380 nM	O=S(=O)(Nc1ccc(Cl)c2cccnc12)c1ccc(Cl)cc1F [Example 54, 4-Chloro-N-(5-chloro-quinolin-8-yl)-2-fluoro-benzenesulfonamide]
6250 nM	O=S1(=O)Nc2c(cc(Cl)c3cccnc23)-c2cc(C(F)(F)F)ccc21 [Example 334, 12-Chloro-9-trifluoromethyl-5H-6-thia-4,5-diaza-chrysene 6,6-dioxide]
1780 nM	O=S(=O)(Nc1ccc(Cl)c2cccnc12)c1cccnc1 [Example 60, Pyridine-3-sulfonic acid (5-chloro-quinolin-8-yl)-amide]
960 nM	COc1cc2c(c3ncccc13)NS(=O)(=O)c1ccc(C(F)(F)F)cc1-2 [Example 589, 12-Methoxy-9-trifluoromethyl-5H-6-thia-4,5-diaza-chrysene 6,6-dioxide]
1710 nM	O=S(=O)(Nc1cccc2cccnc12)c1cccc(Cl)c1F [Example 62, 3-Chloro-2-fluoro-N-quinolin-8-yl-benzenesulfonamide]
4490 nM	CN1C(c2ccc(F)c(CN3CCNCC3)c2)c2ccc3cccnc3c2NS1(=O)=O (stereo not shown) [Example 427, 1-(4-Fluoro-3-piperazin-1-ylmethyl-phenyl)-2-methyl-1,4-dihydro-2H-3-thia-2,4,5-triaza-phenanthrene 3,3-dioxide]
3940 nM	Nc1cc(F)ccc1S(=O)(=O)Nc1cccc2cccnc12 [Example 31, 2-Amino-4-fluoro-N-quinolin-8-yl-benzenesulfonamide]
3000 nM	Cc1cnc2c(NS(=O)(=O)c3ccc(C(F)(F)F)cc3N)cccc2c1 [Example 73, 2-Amino-N-(3-methyl-quinolin-8-yl)-4-trifluoromethyl-benzenesulfonamide]
4580 nM	O=S(=O)(Nc1cccc2cccnc12)c1nccs1 [Example 231, Thiazole-2-sulfonic acid quinolin-8-ylamide]

More lines, now with the values behind:

SMILES	IC50
O=S1(=O)NCc2ccc3cccnc3c2N1 [Example 114, 1,4-Dihydro-2H-3-thia-2,4,5-triaza-phenanthrene 3,3-dioxide]	39500 nM
O=S(=O)(Nc1cc(OC(F)(F)F)cc2cccnc12)c1cccnc1 [Example 237, Pyridine-3-sulfonic acid (6-trifluoromethoxy-quinolin-8-yl)-amide]	3840 nM
CN(C)C(=O)c1ccc2c(c1)-c1cc(Cl)c3cccnc3c1NS2(=O)=O [Example 525, 12-Chloro-6,6-dioxo-5,6-dihydro-6λ*6*-thia-4,5-diaza-chrysene-9-carboxylic acid dimethylamide]	4060 nM
O=S1(=O)Nc2c(cc(Cl)c3cccnc23)-c2ccccc21 [Example 328, 12-Chloro-5H-6-thia-4,5-diaza-chrysene 6,6-dioxide]	320 nM
O=S(=O)(Nc1cccc2cccnc12)c1cccc(Cl)c1 [Example 20, 3-Chloro-N-quinolin-8-yl-benzenesulfonamide]	985 nM
Nc1cc(C(F)(F)F)ccc1S(=O)(=O)Nc1cccc2cccnc12 [Example 35, 2-Amino-N-quinolin-8-yl-4-trifluoromethyl-benzenesulfonamide]	760 nM
CC(=O)c1cc2c(c3ncccc13)NS(=O)(=O)N(C)C2c1ccc(F)cc1 (stereo not shown) [Example 402, 1-[1-(4-Fluoro-phenyl)-2-methyl-3,3-dioxo-1,2,3,4-tetrahydro-3λ*6*-thia-2,4,5-triaza-phenanthren-9-yl]-ethanone]	250 nM
O=S1(=O)Nc2c(c(F)cc3cccnc23)-c2ccccc21 [Example 323, 11-Fluoro-5H-6-thia-4,5-diaza-chrysene 6,6-dioxide]	3570 nM
Nc1ccccc1S(=O)(=O)Nc1cccc2cccnc12 [Example 8, 2-Amino-N-quinolin-8-yl-benzenesulfonamide]	20800 nM
Cc1ccc(S(=O)(=O)Nc2cccc3cccnc23)c(N)c1 [Example 14, 2-Amino-4-methyl-N-quinolin-8-yl-benzenesulfonamide]	300 nM
O=S1(=O)Nc2c(cc(N3CCCCC3)c3cccnc23)-c2ccccc21 [Example 551, 12-Piperidin-1-yl-5H-6-thia-4,5-diaza-chrysene 6,6-dioxide]	1560 nM
COC(=O)c1ccnc2c3c(ccc12)-c1ccccc1S(=O)(=O)N3 [Example 319, 6,6-Dioxo-5,6-dihydro-6λ*6*-thia-4,5-diaza-chrysene-1-carboxylic acid methyl ester]	2940 nM
COCCNc1ccc2c(c1)-c1cc(Cl)c3cccnc3c1NS2(=O)=O [Example 507, (12-Chloro-6,6-dioxo-5,6-dihydro-6λ*6*-thia-4,5-diaza-chrysen-9-yl)-(2-methoxy-ethyl)-amine]	1980 nM
Cc1ccc(S(=O)(=O)Nc2c(Cl)cc(Cl)c3cccnc23)cc1 [Example 51, N-(5,7-Dichloro-quinolin-8-yl)-4-methyl-benzenesulfonamide]	79000 nM
O=S1(=O)Nc2c(ccc3cccnc23)-c2ccc(C(F)(F)F)cc21 [Example 332, 8-Trifluoromethyl-5H-6-thia-4,5-diaza-chrysene 6,6-dioxide]	2340 nM
COc1ccccc1C1c2ccc3cccnc3c2NS(=O)(=O)N1C (stereo not shown) [Example 384, 1-(2-Methoxy-phenyl)-2-methyl-1,4-dihydro-2H-3-thia-2,4,5-triaza-phenanthrene 3,3-dioxide]	1870 nM
CN1C(c2ccc(F)c(Cl)c2)c2ccc3cccnc3c2NS1(=O)=O (stereo not shown) [Example 391, 1-(3-Chloro-4-fluoro-phenyl)-2-methyl-1,4-dihydro-2H-3-thia-2,4,5-triaza-phenanthrene 3,3-dioxide]	3700 nM
